Assay results taken from US6737237B1, “Antimicrobial agents, diagnostic reagents, and vaccines based on unique Apicomplexan parasite components” (Apicomplexan Therapeutics, LLC, priority 1999, dated 2004).
Values after ≈ are worked out from the molar mass of the structure shown. Values joined by “and” are separate entries in the source; they are usually repeats but may differ in a detail not shown here. Identical values can stand only once. Like-named read-outs stand apart in the source and are kept apart here.

Key:
C. parvum = C. parvum infection of MDBKF5D2 cell monolayers, immunofluorescence assay at 48 hours; format: cell-based, Cryptosporidium parvum; conditions: for approximate 95% C1 count (mean parasite count per field): media alone ~1800
Experimental: C. parvum oocysts at 50,000/well were incubated at 37° C. (8% CO2) on confluent MDBKF5D2 cell monolayers in 96 well microtiter plates with the following concentrations of each drug. […] The level of infection of each well was determined and analyzed by an immunofluorescence assay at 48 hours using an antibody to C. parvum sporozoites made in rabbits at a concentration of 0.1%. Fluorescein-conjugated goat anti-rabbit antibody was used at a concentration of 1%.
(8% carbon dioxide) on confluent MDBKF5D2 cell monolayers in 96 well microtiter plates. The level of infection of each well was determined and analyzed by an immunofluorescence assay at 48 hours using as an antibody C. parvum sporozoite rabbit anti-serum (0.1%), and using fluorescein-conjugated goat anti-rabbit antibody (1%). Data are expressed as mean parasite count/field when 16 fields counted at 10× magnification “s.d. of the mean” (FIG. 6).

[1] = tested on: T. gondii isocitrate lyase; assay: Isocitrate lyase enzyme activity in T. gondii tachyzoite lysates; format: biochemical, Toxoplasma gondii
Experimental: Parasite lysates were obtained from tachyzoites, suspended in elution buffer (100 mM KCL, 20% gylcerol 7 mM 2-mercaptoethanol, 20 mM Tris-HCL, pH 7.5, and complete protease inhibitor cocktail) [Boehringer Mannheim, 1 table per 50 ml buffer], sonicated 3 times for 3 seconds at 30 sec intervals, and centrifuged at 12,000 g for 15 min. The supernatant collected was applied to a Sephadex® G100 column (25 ml, Pharmacia) equilibrated with elution buffer, eluted with 15 ml of elution buffer,. and ≈1.5 ml fractions were collected. Fraction(s) with the peak protein concentrations (protein analysis performed on a spectrophotometer at 280 nm) were selected and used in enzyme assays.
A discontinuous method descrobed by Ko and McFadden^17 was employed with minor modifications to measure the ability of isocitrate lyase to convert isocitrate to succinate and glyoxylate. This method utilizes the colorimetric reaction between the phenylhydrozone of glyoxylate and ferricyanide. Reaction mixtures (92 mM MOPS, 5 mM MgCL2, 1 mM DTT, 1% phenylhydrazine, 4.4 mM isocitrate, in 0.5 ml with fractionated parasite lysate) were incubated in a 37° C. water bath for a determined amount of time. After incubation, enzymatic reactions were stopped with concentrated HCl, mixed with 25% (w/v) potassium ferricyanide, and then measured in a spectrophotometer at 520 nm.

[2] = tested on: T. gondii tachyzoites (RH strain); assay: microbe, parasite or virus in culture; format: cell-based, Toxoplasma gondii
Experimental: The improvements are based on microscopic visual imspection of infected and inhibitor treated cultures, and on quantitation of nucleic acid synthesis of the parasite by measure intake of ^3H uracil onto the parasite's nucleic acid. Uracil is not utilized by mammalian cells. […] Only the RH strain tachyzoites, cultured for up to 72 hours, had been used in previously reported assays. The use of Me49, Ptg, and R5 mutant are unique aspects of the methods used in these assays in this invention.
(§1) In these assays toxicity of a candidate inhibitor was assessed by its ability to prevent growth of human foreskin fibroblasts (HFF) after 4 days and after 8 days as measured by tritiated thymidine uptake and microscopic evaluation. Confluent monolayers of HFF were infected with tachyzoites and bradyzoites. Inhibitor was added one hour later. Non-toxic doses were used in parasite growth inhibition assays. Parasite growth was measured by ability to incorporate tritiated uracil during the last 18 hours of culture.
(§2) First the toxicity of gabaculine was assessed by its ability to prevent growth of human foreskin fibroblasts (HFF) as measured by ^3H-thymidine uptake and microscopic evaluation. Non-toxic doses were used in parasite growth inhibition assays. in vitro parasite growth inhibition assays included confluent monolayers of HFF infected with tachyzoites (RH) or mutant Me49 (R5). Gabaculine was added 1 hour later. Parasite growth was measured by the ability to incorporate ^3H-uracil during the last 18 hours of culture. In addition, parasite growth was evaluated microscopically in Giemsa stained slides.
ii) in vitro Parasite Growth Inhibition Assays: Confluent monolayers of HFF cells, grown in 96-well plates are infected with T. gondii tachyzoites of the RH strain and serial dilutions of anti-microbial compound are applied 1 hour later. T. gondii growth is assessed in these cultures by their ability to incorporate tritiated uracil (2.5 μCi/well) added during the last 18 hours of culture. After harvesting cells with an automatic cell harvester, uracil incorporation is measured by liquid scintillation.

[3] = tested on: P. falciparum asexual erythrocytic forms; assay: P. falciparum in vitro growth, clone not stated; format: cell-based, Plasmodium falciparum
Experimental: This assay is performed in folate deficient RPMI 1640 over a 66 hour incubation in plasma as described by Milhous et al. (1985). Both the W2 clone DHFR resistant phenotype and the D6 clone are used (Odula et al., 1988) (Table 3).

[4] = tested on: D6 clone of Plasmodium falciparum; assay: P. falciparum in vitro assay (Milhous et al., 1985), D6 clone; format: cell-based; conditions: D6 clone, folate deficient RPMI 1640, 66 hour incubation
T. gondii EPSP synthase = T. gondii EPSP synthase enzyme activity (HPLC); format: biochemical, Toxoplasma gondii; conditions: 1 mM
Experimental: Assays for 4-aminobenzoate and 4-amino-4-deoxychorismate are performed as described previously.” Enzyme Assays: The 5-enolpyruvylshikimate-3-phosphate (EPSP) synthase assay entailed monitoring the generation of EPSP using HPLC. Reaction components were separated using a Hypersil H3APS2 HPLC column (Hichrom Limited, Reading, UK) and a NaH2PO4 elution gradient (50-400 mM). UV spectra (200-300 nm) of the colume eluate were collected to identify eluants. […] The peaks at 215 nm were integrated; the EPSP produced was quantified using a standard curve of authentic EPSP. Parasite extracts were produced at 4° C. by suspension of pure tachyzoites in extraction buffer (50 mM Tris.HCl, pH 7.5, containing complete TM protease inhibitor cocktail [Boehringer Mannheim, 1 tablet per 50 ml buffer]), sonication 3 times for 3 seconds at 30 second intervals, and centrifugation at 12000 g for 15 min. The resulting supernatant was diluted 6-fold with extraction buffer and loaded onto a ResourceQ column (1 ml, Pharmacia) equilibrated with extraction buffer. The bound protein was eluted in a single step using extraction buffer containing 500 mM Kcl. The eluted material was used for enzyme assay. The assay mix contained 1 mM phosphoenolpyruvate, 1 mM SP and 50 mM HEPES, pH 7.5. […] Protein concentrations of lysates were determined using the Lowry method. […]

T. gondii = assay: Assay for synergy in vitro: inhibitors alone and together on replication of T. gondii (uracil CPM); format: cell-based, Toxoplasma gondii; conditions: Drug A alone: NPMG (3.25 mM)
Excerpt: The effect of enzymes in pathways “in parallel” are additive and in “series” are more than the additive effect of either inhibitor used alone (i.e., synergistic). […] The shikimate pathway produces 3,4-dihdroxybenzoate which is converted to ubiquinone, an essential component of the electron transport chain. Thus, NPMG, an inhibitor of EPSP-synthase, indirectly affects ubiquinone production and, thus, the electron transport chain. Similarly, heme is required for production of cytochromes in the electron transport chain. Thus, inhibition of heme production by gabaculine also indirectly affects the conventional electron transport chain. […] T. gondii growth is measured by their ability to incorporate tritiated uracil and is expressed as counts/minute (CPM).
g) Assays for Synergy in vitro: This is an assy in which ≦50% inhibitor concentrations of two antimicrobial agents are added alone and together to determine whether there is an additive, synergistic or inhibitory interaction. All other aspects of this assay are as described herein.

[5] = tested on: human foreskin fibroblasts (HFF); assay: Toxicity: growth of fibroblasts, tritiated thymidine uptake and microscopic evaluation; format: cell-based; conditions: similar concentrations (20 mM gabaculine)
Experimental: as §1, §2
d) Inhibitors: Inhibitor compounds are tested over a range of concentrations for toxicity against mammalian cells by assessing their ability to prevent cell growth as measured by tritiated thymidine uptake and inspection of the monolayer using microscopic evaluation. […]

[6] = tested on: mutant R5 strain of T. gondii; assay: Growth of mutant R5 strain of T. gondii in HFF over 8 days, uracil uptake; format: cell-based, Toxoplasma gondii; conditions: gabaculine 20 mM; P/S
Experimental: Improvements were developed in the assays reported by Mack et al. (1984) and Holfels et al. (1994) to measure T. gondii replication in tissue culture. The improvements are based on microscopic visual imspection of infected and inhibitor treated cultures, and on quantitation of nucleic acid synthesis of the parasite by measure intake of ^3H uracil onto the parasite's nucleic acid. Uracil is not utilized by mammalian cells. […]
First the toxicity of gabaculine was assessed by its ability to prevent growth of human foreskin fibroblasts (HFF) as measured by ^3H-thymidine uptake and microscopic evaluation. […] Parasite growth was measured by the ability to incorporate ^3H-uracil during the last 18 hours of culture. In addition, parasite growth was evaluated microscopically in Giemsa stained slides.
This mutant strain is atovaquone resistant and posseses certain characterisitics of the tachyzoite stage and certain characteristics of the bradyzoite stage. T. gondii growth is measure by their ability to incorporate tritiated uracil and is expressed as counts/minute (CPM) on the Y-axis. […]

For `O=C(O)CC[N+](=O)[O-]` [3-NPA, 3-Nitropropionic acid], the “effect on Cryptosporidia in vitro” value (C. parvum) was “inhibited”, the “Isocitrate lyase enzyme activity” value [1] was “inhibition” and the “CPM restricted (tritiated uracil incorporation)” value (from here on “CPM restricted”) ([2]; 3-NPA 0.006 mg ml, 4-day, medium about 30,000 CPM) was “around 60%”.
`O=C(O)CNCP(=O)(O)O` [NPMG, N-(phosphonomethyl) glycine] was tested, and the “antagonism of glyphosate growth inhibition by products” value ([3]; asexual erythrocytic forms, PABA and folate added) was “PABA and folate antagonism of growth inhibition”, the “approximate 95% C1 count (mean parasite count per field)” value (C. parvum; NPMG 0.45 μg/ml) was roughly 1200 and the “approximate 95% C1 count (mean parasite count per field)” value (C. parvum; NPMG 4.5 μg/ml) was roughly 900. For the same compound, the “approximate 95% C1 count (mean parasite count per field)” value (C. parvum; NPMG 0.045) was roughly 1200, the “effect of PABA on the effect of NPMG on C. parvum” value (C. parvum; PABA added) was “not abrogated by PABA” and the IC50 ([4]; read-out: IC 50) was 0.823 µg/mL (≈ 4.87 µM). The IC90 ([4]; read-out: IC90) was 2.51 µg/mL (≈ 14.8 µM), the “EPSP synthase enzyme activity” value (T. gondii EPSP synthase) was “inhibition” and the “CPM restricted” value ([2]; NPMG 3.12 mM, 4 day, medium around 72,000) was “around 60%”. For the same compound, the “counts (tritiated uracil incorporation)” value ([2]; NPMG 4.5 mM, 4 day, medium around 72,000, no RH around 2,000 CPM) was “about 12,000 CPM”, the “product rescue: effect of added PABA on inhibition by NPMG” value ([2]; PABA added to cultures) was “abrogates” and the inhibition at 4500 µM ([2]; Toxoplasma gondii, Fibroblast, 96 h, NPMG 4.5 mM, 4 day, read-out: parasite growth inhibited) was roughly 80%. The “CPM for A” value (T. gondii) was 28138 ± 2216 CPM and 25097 ± 1398 CPM.
`NC1C=CC=C(C(=O)O)C1` (centres unmarked) [gabaculine, 3-amino-2,3-dihydrobenzoic acid] was tested, and the IC50 ([3]; Plasmodium falciparum) was no less than 45 µg/mL, the “approximate 95% C1 count (mean parasite count per field)” value (C. parvum; gabaculine 0.2 μg/ml) was roughly 1300 and the “approximate 95% C1 count (mean parasite count per field)” value (C. parvum; gabaculine 2 μg/ml) was roughly 600. For the same compound, the “approximate 95% C1 count (mean parasite count per field)” value (C. parvum; gabaculine 20 μg/ml) was roughly 200, the “toxicity to the foreskin fibroblasts” value [5] was “no toxicity” and the “Parasite growth of R5 strain over 8 days (CPM)” value [6] was “restricted in cultures with 20 mM gabaculine (gabaculine) over the first 6 days of culture”. The “CPM restricted” value [2] was “around 50%”, the “counts (tritiated uracil incorporation)” value [2] was “about 5,000 CPM” and the inhibition at 5000 µM ([2]; Toxoplasma gondii, Fibroblast, 96 h, read-out: growth of T. gondii inhibited) was roughly 60%. For the same compound, the “Parasite growth over the 8 day time course (CPM)” value ([2]; gabaculine 20 mM, P/S) was “restricted”.
